{"source": "patent US11766470B2", "about": "“Manufacture, formulation and dosing of apraglutide” (VectivBio AG, priority 2020, dated 2023)", "key": {"[1]": {"system": "anti-apraglutide antibodies", "assay": "Anti-apraglutide antibodies ELISA in serum, Phase 2 SBS-IF trial (Example 5)", "format": "in vivo, human", "excerpt": "Blood samples for analysis of plasma concentration of apraglutide and fasting plasma L-citrulline, a marker of enterocyte mass, were collected at baseline, during first and second treatment injection, four days after first treatment injection and at the end of treatment.\nA fully validated ELISA method was used for the detection of anti-apraglutide antibodies in serum, following a three-tiered assay approach. In the first tier, anti-apraglutide antibodies present in samples and controls bonded to apraglutide immobilized on a microtiter plate. The bound anti-apraglutide antibodies were then detected with protein A/G and protein L. A sample with a signal above the validated screening cut-point was considered potentially positive and was then tested in the second tier, the confirmatory assay. For this, samples were pre-treated with an excess of apraglutide prior to testing them in the assay described above. An inhibition of the signal equal to or greater than the validated confirmatory cut-point confirmed the presence of antibodies. Samples were then reported as anti-apraglutide antibody positive. Titers were then determined by serial dilution of all confirmed positive samples."}, "[2]": {"assay": "Phase I trial, single subcutaneous 5 mg dose in subjects with severe renal impairment vs normal renal function (Example 10), pharmacokinetics", "format": "in vivo, human", "details": "for Geometric mean ratio for AUCinf, severe renal impairment vs normal renal function / Geometric mean ratio for Cmax, severe renal impairment vs normal renal function: single SC 5 mg; for Geometric Mean Ratio of AUCinf / Geometric Mean Ratio of Cmax: single subcutaneous dose 5 mg apraglutide, severe renal impairment (Cohort 1) vs normal renal function (Cohort 2)", "description": "(§1) The following non-limiting example describes a Phase I clinical trial in which subjects with normal and impaired kidney function are treated with the apraglutide formulations of the present disclosure. This Phase I clinical trial investigates the pharmacokinetics and safety of a single subcutaneous dose of 5 mg apraglutide in subjects with varying degrees of renal function. The renal function is calculated by the estimated glomerular filtration rate (eGFR) according to the Chronic Kidney Disease Epidemiology (CKD-EPI) Creatinine Equation.\n(§2) The trial is a two-stage, open label, multi-center, non-randomized, Phase I trial. In Part 1 of the trial, 8 subjects with severe renal impairment (Cohort 1) and 6 subjects with normal renal function (Cohort 2) will be administered a single dose 5 mg apraglutide of the present disclosure. In Part 2 of the trial, 8 subjects with moderate renal impairment (Cohort 3) and 8 subjects with mild renal impairment (Cohort 4) will be administered a single dose 5 mg apraglutide of the present disclosure. Subjects will be enrolled if the geometric mean ratio (GMR) of AUCinf or AUClast for the severe renal impairment group compared to the control group is ≥2.\nPatient eligibility is assessed during a screening visit. The main inclusion criteria are: • 1. All Participants • a. Age between 18 and 75 years inclusive • b. Subjects who are willing and able to comply with the study procedures • c. Subjects able to understand and willing to sign the informed consent • d. Body mass index (BMI) of ≥17.5 to ≤40 kg/m2; and a total body weight of >50 kg (110 lb). • e. […] Sterilized or infertile or postmenopausal females. • f. […] Healthy participants • a. No clinically relevant abnormalities (medical history, vital signs, ECG, safety labs) • b. eGFR measured by CKD-EPI≥90 mL/min/1.73 m2 at two screening visits • c. […] Participants with impaired renal function • a. Severe renal impairment: eGFR<30 mL/min/1.73 m2, but not requiring hemodialysis • b. Moderate renal impairment: eGFR≥30 mL/min/1.73 m2 and <60 mL/min/1.73 m2 • c. Mild renal impairment: eGFR≥60 and <90 mL/min/1.73 m2\nPrimary endpoint efficacy assessments will be performed at 240 hours after single dose. […] Secondary endpoint efficacy assessments will be performed at 240 hours, 7 days, 14 days, and 28 days. Primary and secondary endpoints will be evaluated across all subjects.\nThe secondary endpoints to be evaluated, include, but are not limited to: • 1. Area under the concentration-time curve up to the last measurable concentration from time 0 to 7 days (AUC0-7days). Samples collected over 168 hours after single dose • 2. Time to maximum concentration (Tmax). Samples collected over 240 hours after single dose • 3. Terminal elimination rate constant. Samples collected over 240 hours after single dose • 4. Terminal elimination half-life. Samples collected over 240 hours after single dose • 5. Apparent clearance after extravascular administration (CL/F). Samples collected over 240 hours after single dose • 6. Apparent volume of distribution after extravascular administration (Vz/F). Samples collected over 240 hours after single dose • 7. Number of participants with adverse events or adverse events of special interest at days 14-28 • 8. Clinically significant change from baseline in vital signs at days 14-28 • 9. Clinically significant change from baseline in recorded triplicate 12-lead ECG at days 14-28 • 10. Number of participants who experience a clinically significant change from baseline in clinical laboratory assessments at days 14-28\nThe plasma concentration of apraglutide after administration of a single subcutaneous dose of 5 mg apraglutide was monitored over a period of 240 hours in both healthy subjects (Cohort 2) and subjects with severe CKD (Cohort 1) and is presented in FIG. 29.\nTwo outliers were identified (one in each Cohort) when analyzing the individual apraglutide plasma concentration curves. […]"}, "[3]": {"assay": "Solubility, pH and isoelectric point of the peptide", "format": "physicochemical", "details": "purified water"}, "[4]": {"system": "subjects with severe renal impairment", "assay": "Safety in Phase I renal impairment trial (Example 10)", "format": "in vivo, human", "details": "5 mg single SC dose", "description": "as §1, §2\nThe secondary endpoints to be evaluated, include, but are not limited to: • 1. […] Clinically significant change from baseline in recorded triplicate 12-lead ECG at days 14-28 • 10. […]"}, "[5]": {"assay": "Population PK/PD model of plasma apraglutide and plasma citrulline (healthy volunteers and SBS patients)", "from_the_text": "Plasma citrulline was used as a pharmacodynamic (“PD”) marker to describe the effect of apraglutide. Similar to the pharmacokinetic (“PK”) model development, the PK/PD model was developed for the healthy individuals from studies GLY-101-2015 and TA799-002 only. For development of the PD model, the PD observations were fitted together with the PK observations using the final PK model with its structure, residual error-, covariates- and random effects-models. The starting model was a turnover model where plasma citrulline was constantly synthesized and degraded with the synthesis rate ksyn and the degradation rate kdeg. Plasma apraglutide stimulated citrulline synthesis via a sigmoid Emax relationship with the baseline citrulline level R0, the half-maximal effect at the concentration EC50, the maximal effect Emax, and a Hill coefficient gamma. It was assumed that citrulline turnover was in steady state such that citrulline synthesis was determined solely by citrulline baseline and degradation. The population PK/PD of plasma apraglutide was established with data from two studies in healthy volunteers and two studies with SBS patients that tested doses between 2.5 and 50 mg SC.\nThe population PK/PD model was used to predict plasma apraglutide exposure and plasma citrulline trough concentration-time profiles with and without inter-individual variability for individuals with body weights between 40 and 120 kg receiving weekly doses of 2.5, 5, or 10 mg SC. […] Apraglutide exposure for body weights between 40 and 120 kg and apraglutide SC doses of 2.5, 5, or 10 mg was compared to post-hoc exposure estimates of SBS patients. Bracketing at a body weight of 50 kg between doses of 2.5 and 5 mg was simulated.\nPlasma citrulline was described by a turnover model and maximal PD effect model."}, "[6]": {"details": "cohort without the two outliers"}}, "note": "Square brackets hold non-standard residues; d marks the D form. Peptide text beside a SMILES is read from it. ξ: configuration not given here. Ile(3ξ) = CCC(C)[C@H](N)C(=O)O; Thr(3ξ) = CC(O)[C@H](N)C(=O)O; Nle = CCCC[C@H](N)C(=O)O"}
{"smiles": "CCCC[C@H](NC(=O)[C@H](CCC(=O)O)NC(=O)[C@H](CC(=O)O)NC(=O)[C@H](CO)NC(=O)[C@H](Cc1ccccc1)NC(=O)[C@H](CO)NC(=O)CNC(=O)[C@H](CC(=O)O)NC(=O)CNC(=O)[C@@H](N)Cc1c[nH]cn1)C(=O)N[C@H](Cc1ccccc1)C(=O)N[C@H](C(=O)N[C@H](C(=O)N[C@@H](CC(C)C)C(=O)N[C@@H](CC(=O)O)C(=O)N[C@@H](CC(C)C)C(=O)N[C@@H](CC(C)C)C(=O)N[C@@H](C)C(=O)N[C@@H](C)C(=O)N[C@@H](CCCNC(=N)N)C(=O)N[C@@H](CC(=O)O)C(=O)N[C@@H](Cc1ccccc1)C(=O)N[C@H](C(=O)N[C@@H](CC(N)=O)C(=O)N[C@@H](Cc1c[nH]c2ccccc12)C(=O)N[C@@H](CC(C)C)C(=O)N[C@H](C(=O)N[C@@H](CCC(N)=O)C(=O)N[C@H](C(=O)N[C@@H](CCCCN)C(=O)N[C@H](C(=O)N[C@H](C(=O)N[C@@H](CC(=O)O)C(N)=O)C(C)O)C(C)CC)C(C)O)C(C)CC)C(C)CC)C(C)CC)C(C)O", "note": "(stereo partly drawn) [apraglutide, L-histidyl-glycyl-L-aspartyl-glycyl-L-seryl-L-phenylalanyl-L-seryl-L-aspartyl-L-glutamyl-L-norleucyl-D-phenylalanyl-L-threonyl-Lisoleucyl-L-leucyl-L-aspartyl-L-leucyl-L-leucyl-L-alanyl-L-alanyl-L-arginyl-L-aspartyl-L-phenylalanyl-L-isoleucyl-L-asparaginyl-Ltryptophanyl-L-leucyl-L-isoleucyl-L-glutaminyl-L-threonyl-L-lysyl-L-isoleucyl-L-threonyl-Laspartic acid amide] (H-HGDGSFSDE[Nle][dF][Thr(3ξ)][Ile(3ξ)]LDLLAARDF[Ile(3ξ)]NWL[Ile(3ξ)]Q[Thr(3ξ)]K[Ile(3ξ)][Thr(3ξ)]D-NH2)", "values": [{"measurement": "Patients who developed anti-apraglutide antibodies", "setting": "[1]; during the trial", "result": "Three"}, {"measurement": "Patients positive for anti-apraglutide antibodies", "setting": "[1]; end of 5 mg treatment period", "result": "Two"}, {"measurement": "Patients positive for anti-apraglutide antibodies", "setting": "[1]; end of 10 mg treatment period", "result": "one"}, {"measurement": "Effects of anti-apraglutide antibodies on PK profile, pharmacodynamic response, adverse events", "setting": "[1]; in vivo", "result": "No effects of anti-apraglutide antibodies were detected"}, {"measurement": "Geometric mean ratio for AUCinf, severe renal impairment vs normal renal function", "setting": "[2]; entire subject population", "result": 0.614}, {"measurement": "Geometric mean ratio for Cmax, severe renal impairment vs normal renal function", "setting": "[2]; entire subject population", "result": 0.572}, {"measurement": "Geometric mean ratio for AUCinf, severe renal impairment vs normal renal function", "setting": "[2]; outlier subjects removed", "result": 0.849}, {"measurement": "Geometric mean ratio for Cmax, severe renal impairment vs normal renal function", "setting": "[2]; outlier subjects removed", "result": 0.774}, {"measurement": "Geometric Mean Ratio of AUCinf", "setting": "[2]; [6]", "result": 0.849}, {"measurement": "Geometric Mean Ratio of Cmax", "setting": "[2]; [6]", "result": 0.774}, {"measurement": "Geometric Mean Ratio of AUCinf", "setting": "[2]; whole cohort", "result": 0.614}, {"measurement": "Geometric Mean Ratio of Cmax", "setting": "[2]; whole cohort", "result": 0.572}, {"measurement": "solubility", "setting": "[3]", "result": "> 100", "unit": "mg/mL"}, {"measurement": "Safety in patients with severe CKD, in words", "setting": "[4]", "result": "safe to dose the patients with severe CKD with apraglutide 5 mg, without the risk of overdose"}, {"measurement": "Body weight coefficient on clearance βC1/F/B,W", "setting": "[5]", "result": 1.8}, {"measurement": "Dose at which citrulline saturation appears", "setting": "[5]", "result": 5, "unit": "mg"}, {"measurement": "Dose coefficient on zero-order absorption duration βTk0,Dose", "setting": "[5]", "result": 0.249}, {"measurement": "Half-life, population PK estimate", "setting": "[5]", "result": 31.2, "unit": "h"}, {"measurement": "Maximal effect (Emax) on citrulline synthesis", "setting": "[5]", "result": 0.626}, {"measurement": "Central volume of distribution, population PK estimate", "setting": "[5]; 70-kg individual, 5 mg SC", "result": 31.5, "unit": "L"}, {"measurement": "Clearance, population PK estimate", "setting": "[5]; 70-kg individual, 5 mg SC", "result": 16.8, "unit": "L/day"}, {"measurement": "Volume of distribution, population PK/PD model estimate", "setting": "[5]; 70-kg individual, 5 mg SC", "result": 31.3, "unit": "L"}, {"measurement": "Half-maximal effective apraglutide concentration (EC50) on plasma citrulline", "setting": "[5]; plasma concentration, Emax turnover model", "result": 0.0137, "unit": "µg/mL"}]}
